# Measured values reported in patent US4960678A, “Photochromic compounds” (Tokuyama Soda Kabushiki Kaisha, priority 1987, dated 1990).
# What was measured:
# Format in all cases: physicochemical
# [1] = Xenon long-life fadeometer test of photochromic poly(methyl methacrylate) cast film (initial coloration density, T1/2, λmax), Example 9; conditions: poly(methyl methacrylate) cast film 0.1 mm; for Initial color density: initial coloration density (absorbance); for Initial color density / T1/2 (fatigue life): xenon fadeometer; for λmax: maximum absorption wavelength; for T1/2 (fatigue life): time for color density to decrease to half of initial value;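 as to Initial color density: 0.5 part by weight compound dispersed with PMMA in 100 parts benzene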
# Source text: The thickness of the cast film was adjusted to 0.1 mm.
# (§1) T1/2 is defined as the time required for the color density to decrease to half of its initial value when the film is exposed to the fadeometer.
# [2] = Fatigue life of films of fulgimide or fulgide compounds with Cyasorb UV1084, Example 14; conditions: with Cyasorb UV1084 (0.2 part) as ultraviolet stabilizer in poly(methyl methacrylate) film; xenon fadeometer
# [3] = Durability test of poly(allyl diglycol carbonate) lens impregnated with compound in silicone oil, Example 10; conditions: for Initial color density / λmax: impregnated from silicone oil; for T1/2: impregnated from silicone oil at 200° C. for 1 hour, xenon fadeometer
# Protocol: as §1
# The solution was impregnated in the surface of a lens composed of poly(allyl diglycol carbonate) at 200° C. for 1 hour. The concentration of the solution was adjusted to 1.0×10^-4 mole/g.
# [4] = Fading speed of poly(methyl methacrylate) cast film after mercury lamp irradiation, Example 9; conditions: mercury lamp 60 seconds at 20°±1° C., time to half absorbance after irradiation stopped
# Protocol: The fading speeds of the cast films prepared as above were measured by the following procedure.
# The cast film was exposed to a mercury lamp (SHL-100 made by Toshiba Co., Ltd.) at 20°±1° C. for 60 seconds from a distance of 10 cm. Then, the irradiation was stopped, and the fading speed was determined from changes in the absorbance of the cast film measured by a spectrophotometer (220A made by Hitachi Limited). The fading speed is expressed by the time which is required to the absorbance of the cast film to a value half of (the absorbance of the cast film at a maximum absorption wavelength immediately after 60 second irradiation)--(the absorbance of the non-irradiated cast film at the maximum wavelength) after light irradiation for 60 seconds.
# [5] = Fatigue life of film of fulgimide compound obtained in Example 1 with ultraviolet stabilizer, Example 11; conditions: fulgimide compound obtained in Example 1 (0.2 part) with 0.2 part ultraviolet stabilizer in poly(methyl methacrylate) film; xenon fadeometer
# Source text: as §1
# (§2) One hundred parts of benzene, 10 parts of poly(methyl methacrylate), 0.2 part of the fulgimide compound obtained in Example 1 and 0.2 part of each of the compounds shown in Table 5 as an ultraviolet stabilizer were mixed to form a solution. The solution was cast on a slide glass (11.2×3.7cm) to form a cast film having a thickness of 0.1 mm.
# (§3) The fatigue life of photochromic film was measured as in Example 9 by a xenon long-life fadeometer (FAL-25AX-HC made by Suga Testing Instrument Co., Ltd.).
# [6] = Fatigue life of film of fulgimide compound obtained in Example 2 with ultraviolet stabilizer, Example 12; conditions: fulgimide compound obtained in Example 2 (0.2 part) with 0.2 part ultraviolet stabilizer in poly(methyl methacrylate) film; xenon fadeometer
# Protocol: as §2, §3
# Example 11 was repeated except that the fulgimide compound obtained in Example 2 was used instead of fulgimide compound used in Example 11.
# [7] = Fatigue life of film of fulgimide compound obtained in Example 1 with varied amounts of ultraviolet stabilizer, Example 13; conditions: fulgimide compound of Example 1
# Protocol: […] The solution was cast on a slide glass (11.2×3.7cm) to form a cast film having a thickness of 0.1 mm.
# as §3
# [8] = stabilizer amount added 0.002 (1 part per 100 parts by weight of fulgimide)
# [9] = stabilizer amount added 0.1 (50 parts per 100 parts by weight of fulgimide)
# [10] = stabilizer amount added 0.8 (400 parts per 100 parts by weight of fulgimide)
# [11] = stabilizer amount added 20 (10000 parts per 100 parts by weight of fulgimide)
Compound,Initial color density [1],λmax [1] [nm],T1/2 (fatigue life) [1] [h],further results
COC(=O)C(C)N1C(=O)C2=C(c3ccccc3)c3ccoc3C3(C4CC5CC3CC(Cl)(C5)C4)C2C1=O (stereo not shown) [(12)],0.79,560,31,T1/2 [2]: 160 h
CCC(C(=O)OCCc1ccc2ccccc2c1)N1C(=O)C2=C(C)c3ccsc3C3(C4CC5CC(C4)CC3C5)C2C1=O (stereo not shown) [(5)],0.51,520,24,Fading speed [4]: 58 s; Initial color density [3]: 0.4; λmax [3]: 520 nm; T1/2 [3]: 31 h
CN1C(C)(C)CC(OC(=O)CCCCCCCCC(=O)OC2CC(C)(C)N(C)C(C)(C)C2)CC1(C)C [Tinuvin 765],–,–,–,"T1/2 [5]: 159 h; T1/2 [6]: 191 h; T1/2 [7, 8]: 106 h; T1/2 [7, 9]: 152 h; T1/2 [7, 10]: 166 h; T1/2 [7, 11]: 182 h"
CC1=C2C(=O)N(C[N+](=O)[O-])C(=O)C2C2(c3sc(C)cc31)C1CC3CC(C1)CC2C3 (stereo not shown) [(8)],0.72,556,30,Initial color density [3]: 0.56; λmax [3]: 562 nm; T1/2 [3]: 32 h
CC1=C2C(=O)N(CCCCC(=O)OCCc3cccc4ccccc34)C(=O)C2C2(c3sccc31)C1CC3CC(C1)CC2C3 (stereo not shown) [(6)],0.49,538,16,Fading speed [4]: 76 s; T1/2 [2]: 65 h
CCOP(=O)([O-])Cc1cc(C(C)(C)C)c(O)c(C(C)(C)C)c1.CCOP(=O)([O-])Cc1cc(C(C)(C)C)c(O)c(C(C)(C)C)c1.[Ni+2] [Irgastab 2002],–,–,–,T1/2 [5]: 147 h; T1/2 [6]: 176 h
CCCCC12CC3CC(C1)C1(c4c(n(C)c5ccccc45)C(C)=C4C(=O)N(CC(=O)OCCC#N)C(=O)C41)C(Cl)(C3)C2 (stereo not shown) [(29)],0.71,576,44,Initial color density [3]: 0.56; λmax [3]: 583 nm; T1/2 [3]: 45 h
CC(C)(C)CC(C)(C)c1ccc([O-])c(Sc2cc(C(C)(C)CC(C)(C)C)ccc2[O-])c1.CCCCN.[Ni+2] [Cyasorb UV1084],–,–,–,"T1/2 [5]: 152 h; T1/2 [6]: 182 h; T1/2 [7, 8]: 110 h; T1/2 [7, 9]: 140 h; T1/2 [7, 10]: 160 h; T1/2 [7, 11]: 180 h"
CCCCC(Cc1cc(C(C)(C)C)c(O)c(C(C)(C)C)c1)(C(=O)OC1CC(C)(C)N(C)C(C)(C)C1)C(=O)OC1CC(C)(C)N(C)C(C)(C)C1 [Tinuvin 144],–,–,–,T1/2 [5]: 152 h; T1/2 [6]: 182 h
CCCCC12CC3CC(C1)C1(c4c(OC)cc(OC)cc4C(c4ccccc4)=C4C(=O)N(C(C)(C)C#N)C(=O)C41)C(C3)C2 (stereo not shown) [(17)],0.49,550,48,T1/2 [2]: 188 h
CC(=O)CN1C(=O)C2=C(c3ccccc3)c3cc(-c4ccccc4)sc3C3(C4CC5CC(C4)CC3C5)C2C1=O (stereo not shown) [(10)],0.58,601,40,Initial color density [3]: 0.47; λmax [3]: 610 nm; T1/2 [3]: 43 h
CCCCN(CCCC)C(=S)[S-].CCCCN(CCCC)C(=S)[S-].[Ni+2] [Rylex NBC],–,–,–,T1/2 [5]: 158 h; T1/2 [6]: 190 h
CCC1=C2C(=O)N(CC(=O)CCC(=O)CCl)C(=O)C2C2(c3c1sc1ccccc31)C1(F)C(F)(F)C3(F)C(F)(F)C(F)(C1(F)F)C(F)(F)C2(F)C3(F)F (stereo not shown) [(18)],0.52,519,41,–

# Now from value to molecule, other results behind:
Initial color density [1],λmax [1] [nm],T1/2 (fatigue life) [1] [h],Compound,further results
0.31,506,8,CC1=C2C(=O)N(c3ccccc3)C(=O)C2C2(CC3CCC2C3)c2sc(Br)cc21 (stereo not shown) [(97)],–
0.82,490,42,COC12CC3CC(C1)C1(c4oc5ccccc5c4C(C)=C4C(=O)N(CC(=O)OC(C)(C)CCC#N)C(=O)C41)C(C3)C2 (stereo not shown) [(14)],Initial color density [3]: 0.63; λmax [3]: 500 nm; T1/2 [3]: 42 h
0.9,535,48,CC1=C2C(=O)N(CC#N)C(=O)C2C2(c3occc31)C1CC3CC(C1)CC2C3 (stereo not shown) [(28)],Initial color density [3]: 0.72; λmax [3]: 540 nm; T1/2 [3]: 49 h
0.24,510,8,CCN1C(=O)C2=C(C)c3cc(OC)c(OC)c(OC)c3C3(CC4CCC3C4)C2C1=O (stereo not shown) [(99)],–
0.53,540,11,CC1=C2C(=O)OC(=O)C2C2(CC3CCC2(C)C3(C)C)c2sc(C)cc21 (stereo not shown) [(95)],–
0.61,525,39,CNC(=O)CN1C(=O)C2=C(C)c3cc([N+](=O)[O-])sc3C3(C4CC5CC(C4)CC3C5)C2C1=O (stereo not shown) [(11)],–
0.52,576,36,CCCCC1=C2C(=O)N(CC(C)(C)CCOC(=O)CBr)C(=O)C2C2(CC3CCC2C3(C)C)c2sc3c(c21)CCCC3 (stereo not shown) [(21)],–
–,513,11,CC1=C2C(=O)N(c3ccc(C)cc3)C(=O)C2C2(CC3CCC2C3)c2sc3ccccc3c21 (stereo not shown) [(98)],–
0.42,535,13,CC1=C2C(=O)N(CCc3ccc4ccccc4c3)C(=O)C2C2(CC3CCC2C3)c2sc(Br)cc21 (stereo not shown) [(3)],Fading speed [4]: 71 s; T1/2 [2]: 77 h
0.83,553,46,CC1=C2C(=O)N(CC#N)C(=O)C2C2(c3sccc31)C1CC3CC(C1)CC2C3 (stereo not shown) [(2)],Fading speed [4]: 26 s; Initial color density [3]: 0.64; λmax [3]: 562 nm; T1/2 [3]: 50 h; T1/2 [2]: 182 h
0.62,535,38,COC(=O)CN1C(=O)C2=C(C)c3ccsc3C3(C4CC5CC(C4)CC3C5)C2C1=O (stereo not shown) [(1)],Fading speed [4]: 39 s; Initial color density [3]: 0.5; λmax [3]: 540 nm; T1/2 [3]: 40 h
0.38,520,15,CC1=C2C(=O)OC(=O)C2C2(CC3CCC2C3)c2sc(Br)cc21 (stereo not shown) [(7)],Fading speed [4]: 21 s
0.49,546,12,CCn1c2c(c3ccccc31)C(C)=C1C(=O)OC(=O)C1C21C2CCC(C2)C1(C)C (stereo not shown) [(94)],–
0.59,542,30,COc1ccc2c3c(sc2c1)C1(C2CC4CC(C2)CC1C4)C1C(=O)N(CCl)C(=O)C1=C3C (stereo not shown) [(9)],–
0.7,530,3,"CCN1C(=O)C2=C(C)c3ccsc3C3(C4CC5CC(C4)CC3C5)C2C1=O (stereo not shown) [(X), reference compound]",–
0.47,520,43,CC1=C2C(=O)N(CC(=O)OCC(C)C)C(=O)C2C2(CC3CCC2C3)c2sc(Br)cc21 (stereo not shown) [(19)],–
0.84,492,31,COCCOCN1C(=O)C2=C(C)c3c(oc4ccccc34)C3(C4CC5CC(F)(C4)CC3(F)C5)C2C1=O (stereo not shown) [(16)],–
